Patent US5061703A, “Adamantane derivatives in the prevention and treatment of cerebral ischemia” (priority 1989, dated 1991)
Several values for one entry are separate records, joined by “and”; a condition that tells them apart may be missing. Identical values can stand only once. Like-named read-outs stand apart in the source and are kept apart here.

How the values were obtained:
[1] = target: NMDA receptor-associated ionic channel (PCP/TCP binding site); test: Displacement of TCP Binding (3H-TCP, membrane preparation of rat cortex)
Protocol: Phencyclidine (PCP), a known NMDA antagonist, binds to the NMDA receptor-associated ionic channel and blocks ionic transport (Garthwaite & Garthwaite, Neurosci. Lett. 83, 1987, 241-246).
The interaction between compounds of formula (I) and the PCP bond is studied in the following. In this test ^3 H-TCP, a PCP analogue, is used.
A membrane preparation of rat cortex is incubated with ^3 H-TCP which is an analogue of phencyclidine (PCP) (Quirion & Pert 1982, Eur. J. Pharmacol. 83:155). The interaction with the TCP binding is assessed for test compound no. 1 (1-amino-3,5-dimethyl adamantane) in a competitive experiment. […] The conclusion can be drawn that compound no. 1 binds to NMDA receptor channels at the same site as the NMDA antagonist PCP.

[2] = system: electrically induced convulsions; test: Anticonvulsive Effect (supermaximum electroshock test in mice); assay type: in vivo, mouse; conditions: for ED50 / Anticonvulsive action (score), Mean: i.p.; for ED50: electroshock 40 min after application, estimated according to Litchfield and Wilcoxon; for Anticonvulsive action (score): i.p., 4, 12, 36, 108 and 324 mg/kg, protected animals added over all dosages, maximum = 25, individual scores; for Anticonvulsive action (score), Mean: mean of scores, maximum = 25
Protocol: 4, 12, 36, 108 and 324 mg/kg of the test substance is administered to mice by the intraperitoneal route (5 animals per dose). The supermaximum electroshock test is applied forty (40) minutes after application of the substance to investigate the anti-convulsive potential of the substance. The protected animals are added up over all dosages (score; maximum=25 animals).

[3] = system: NMDA receptor channel; test: Blocking of NMDA Receptor Channels (patch-clamp, cultivated spinal marrow neurons); assay type: cell-based, mouse; conditions: 20 μM NMDA and 6 μM of adamantane derivative; current integrated 20 sec; means ± SEM
Protocol: In the following test it is shown that the compounds of formula (I) according to the invention are as effective as PCP in blocking the NMDA receptor channel.
In the patch-clamp experiment, the current flowing through NMDA-activated membrane channels of cultivated spinal marrow neurons (mouse) is measured (Hamill et al 1981, Pflugers Arch. 312: 85-100). After application of 20 μM NMDA, the current signal of the cell is integrated for 20 sec. and recorded as a control answer (Ac). During succeeding application of 20 μM NMDA and 6 μM of an adamantane derivative, the intensity of the substance effect can be determined as a relative change of the control answer (A/Ac -A=test answer).

[4] = system: MK-801 binding site of the NMDA receptor channel; conditions: as reported in the foregoing publication (Kornhuber et al. 1989); cited from earlier work
[5] = system: NMDA-induced mortality; test: Protection Against NMDA-Induced Mortality (mice); assay type: in vivo, mouse; conditions: 200 mg/kg NMDA i.p.
Protocol: It is well known that, subsequent to cerebral ischemia, glutamate and aspartate levels increase massively in the brain. These excitatory aminoacids overstimulate the NMDA-subtype of the glutamate receptor thus leading to delayed neuronal death. A similar pathophysiological situation is obtained when mice are administered intraperitoneally with 200 mg/kg NMDA. This high dose will eventually cause 100% mortality in the animals (Leander et al. 1984, Brain Res. 448; 115-120).

[6] = system: neurons in the CA1-CA4 region of the hippocampus; test: Protection Against Cerebral Ischemia (carotid occlusion in rats, hippocampal histology); assay type: in vivo, rat; conditions: for damaged neurons, area CA1 / damaged neurons, area CA3 / damaged neurons, area CA4: single administration 1 h prior to ischemia, ± SEM
Protocol: Both carotid arteries are occluded in rats for 10 minutes. […] The ischemia is terminated by opening the carotids and reinfusion of the withdrawn blood. After seven days the brains of the test animals are histologically examined for cellular changes in the CA1-CA4 region of the hippocampus, and the percentage of destroyed neurons is determined.

[7] = system: brain cells after cerebral ischemia; conditions: rats; Sauer et al. 1988; cited from earlier work
[8] = target: MK-801 binding site of the NMDA receptor channel; test: Displacement of [3H] MK-801 Binding in Human Brain Tissue (frontal cortex homogenates); conditions: [3H] MK-801 (3 nM), mean of triplicate experiments
Protocol: MK-801 binds to the ion channel associated with the NMDA receptor, as well as TCP does. This binding site is thought to mediate the neuroprotective effects of non-competitive NMDA-antagonists.
We have investigated whether the adamantane derivatives of the present invention are active at the MK-801 binding site. Tissue from frontal cortex was taken from patients at autopsy and homogenates were prepared. Inhibition of specific [^3 H] MK-801 binding (3 nM) by the test compounds was determined (see e.g. Kornhuber et al. 1989, Eur. J. Pharmacol. 166: 589-590).
wherein Ki is the inhibition constant and nM is nanomoles per liter. Mean values from triplicate experiments are given ± S.E.M.
The inhibition constant Ki is approximately equal to the concentration of the adamantane in nM required to displace 50% of the MK-801 specifically bound to the receptor.

[9] = Mus musculus, ip, 40 min, read-out: ED50

Structure (SMILES) | ED50 [2, 9] | Anticonvulsive action (score) ([2]; 40 min) | Anticonvulsive action (score), Mean ([2]; 40 min) | 1-A/Ac [3] | Protected Animals ([5]; 25 mg/kg) | Protected Animals ([5]; 50 mg/kg) | Ki [8] | other results
CC12CC3CC(C)(C1)CC(N)(C3)C2 [Compound no. 1, 1-amino-3,5-dimethyl adamantane] | 16 mg/kg | 18 and 16 and 15 | 16.3 | 0.66 ± 0.05 | 6/8 | 8/8 |  | IC50 ([1]; membrane preparation of rat cortex, competitive experiment): 89 nM; displacement of TCP from the bond (in words) ([1]; rat cortex membranes): very effective; potency compared with thirteen other clinically-used and centrally-acting drugs (in words) [4]: most potent compound; Protected Animals ([5]; 10 mg/kg): 3/8; damaged neurons, area CA1 ([6]; 5 mg/kg (n = 5)): 83.0 ± 2.2%; damaged neurons, area CA3 ([6]; 5 mg/kg (n = 5)): 7.3 ± 1.8%; damaged neurons, area CA4 ([6]; 5 mg/kg (n = 5)): 3.7 ± 1.7%; damaged neurons, area CA3 ([6]; 20 mg/kg (n = 6)): 2.7 ± 1.0%; damaged neurons, area CA4 ([6]; 20 mg/kg (n = 6)): 0.6 ± 0.3%; damaged neurons, area CA1 ([6]; 20 mg/kg (n = 6), **p < 0.01 (U test)): 53.1 ± 6.1%; reduction of post-ischemic neuronal brain damage in the CA1 region (in words) ([6]; pre-ischemic application of 20 mg/kg, rat hippocampus): statistically significant; physiological parameters (e.g. blood pressure, body temperature) ([6]; rats, during ischemia test): not affected by the treatment
C[C@]12N[C@H](Cc3ccccc31)c1ccccc12 [MK-801, 5-methyl-10,11-dihydro-5H-dibenzo[a,d]cycloheptene-5,10-imine, reference compound] | < 1 mg/kg | 25 | 25.0 | 0.60 ± 0.05 |  |  |  | 
c1ccc(C2(N3CCCCC3)CCCCC2)cc1 [PCP, Phencyclidine, reference compound] |  | 19 | 19.0 | 0.50 ± 0.04 |  |  |  | prevention of destruction of brain cells after cerebral ischemia (in words) [7]: prevent the destruction of brain cells after cerebral ischemia in rats; ED50 [2]: 9 mg/kg
CCC12CC3CC(CC(N)(C3)C1)C2 [compound 2, 1-amino-3-ethyl adamantane] | 30 mg/kg | 15 and 14 and 12 | 13.7 | 0.44 ± 0.08 |  |  |  | 
CC(C)C12CC3CC(CC(N)(C3)C1)C2 [compound 3, 1-amino-3-isopropyl adamantane] |  |  |  | 0.58 ± 0.07 | 4/8 | 6/8 | 598 nM | 
CCC12CC3CC(N)(C1)CC(CC)(C3)C2 [compound 4, 1-amino-3,5-diethyl adamantane] | 24 mg/kg | 16 and 11 | 14.3 | 0.50 ± 0.11 | 5/8 | 7/8 | 189 nM | 
CNC12CC3CC(C)(CC(C)(C3)C1)C2 [compound 5, 1-N-methylamino-3,5-dimethyl adamantane] | 13 mg/kg | 17 | 17.0 | 0.56 ± 0.07 | 5/8 |  | 1610 nM | 
CCNC12CC3CC(C)(CC(C)(C3)C1)C2 [compound 6, 1-N-ethylamino-3,5-dimethyl adamantane] |  |  |  | 0.38 ± 0.05 |  |  |  | 
NC12CC3CC(C1)CC(C1CCCCC1)(C3)C2 [compound 7, 1-amino-3-cyclohexyl adamantane] |  |  |  | 0.25 ± 0.04 |  |  |  | 
CCC12CC3(C)CC(C)(CC(N)(C3)C1)C2 [compound 8, 1-amino-3,5-dimethyl-7-ethyl adamantane] |  |  |  | 0.50 ± 0.03 |  |  |  | 
